Values joined by “and” are separate entries in the source; they are usually repeats but may differ in a detail not shown here. Equal entries are not always repeated.
Species on record: Rattus norvegicus
Assay: Open TG-GATES - Regimen: Single
Format: toxicity, organism-based, Sprague-Dawley
Design: regimen Single, gender Male, age 6 weeks
Details: in vivo, po, 0 mg/kg, route gavage, dose level Control; for APTT / Bas / Eos / Fbg / Hb / Ht / Lym / MCH / MCHC / MCV / Mono / Neu / PT / Plat / RBC / Ret / WBC: tissue Blood; for KIDNEY_L / KIDNEY_R / KIDNEY_TOTAL: tissue Kidney; for LIVER: tissue Liver; for ALP / ALT / AST / BUN / CRE / Ca / Cl / GLC / IP / K / LDH / Na / PL / RALB / TBIL / TC / TP / gamma-GTP: tissue Plasma

## O=P1(N(CCCl)CCCl)NCCCO1 (stereo not given) [CYCLOPHOSPHAMIDE ANHYDROUS]
3 h
  TERMINAL_BW: 187.8 g and 193 g
  APTT: 22.9 s and 16.1 s
  Bas: 0% and 0.2%
  Eos: 1% and 0.6%
  Fbg: 287.4 mg/dL and 271.4 mg/dL
  Hb: 13.1 g/dL and 13.4 g/dL
  Ht: 39.1% and 39.6%
  Lym: 84% and 75.6%
  MCH: 21.3 pg and 21 pg
  MCHC: 33.5% and 33.7%
  MCV: 63.6 fL and 62.4 fL
  Mono: 1.6% and 3.2%
  Neu: 12.8% and 20.2%
  PT: 15.9 s and 13.8 s
  Plat: 124.4 x10_4/uL and 125.2 x10_4/uL
  RBC: 614.8 x10_4/ul and 636 x10_4/ul
  Ret: 8.6% and 9.1%
  WBC: 75.9 x10_2/uL and 115.3 x10_2/uL
  KIDNEY_L: 0.9 g
  KIDNEY_R: 0.8 g
  KIDNEY_TOTAL: 1.7 g
  LIVER: 8.5 g and 8.2 g
  ALP: 1691.4 IU/L and 1383.8 IU/L
  ALT: 46.4 IU/L and 37.2 IU/L
  AST: 77.8 IU/L and 73.8 IU/L
  BUN: 13.4 mg/dL and 10 mg/dL
  CRE: 0.2 mg/dL
  Ca: 10.6 mg/dL and 11 mg/dL
  Cl: 106.8 meq/L and 105.2 meq/L
  GLC: 188.8 mg/dL and 175.4 mg/dL
  IP: 8.2 mg/dL and 8.4 mg/dL
  K: 3.8 meq/L and 4.6 meq/L
  LDH: 185 IU/L and 66 IU/L
  Na: 144.2 meq/L and 140.4 meq/L
  PL: 135.6 mg/dL and 140.8 mg/dL
  RALB: 2.9 g/dL and 2.4 g/dL
  TBIL: 0.026 mg/dL and 0.066 mg/dL
  TC: 78.4 mg/dL and 78 mg/dL
  TP: 5.4 g/dL and 5.2 g/dL
  gamma-GTP: 1 IU/L and 1.2 IU/L
6 h
  TERMINAL_BW: 190.8 g and 192 g
  APTT: 21.9 s and 18.3 s
  Bas: 0%
  Eos: 0.6% and 1%
  Fbg: 286 mg/dL and 280.6 mg/dL
  Hb: 13.3 g/dL and 12.8 g/dL
  Ht: 39.8% and 38.3%
  Lym: 78.6% and 76.6%
  MCH: 21.1 pg and 20.7 pg
  MCHC: 33.5%
  MCV: 63.1 fL and 61.8 fL
  Mono: 2%
  Neu: 17.8% and 20.2%
  PT: 16.4 s and 14 s
  Plat: 122.5 x10_4/uL and 115 x10_4/uL
  RBC: 630.6 x10_4/ul and 620.2 x10_4/ul
  Ret: 8.1% and 8.5%
  WBC: 102.3 x10_2/uL and 90.1 x10_2/uL
  KIDNEY_L: 0.9 g and 0.8 g
  KIDNEY_R: 0.9 g and 0.8 g
  KIDNEY_TOTAL: 1.7 g
  LIVER: 8.1 g
  ALP: 1329.6 IU/L and 1641.8 IU/L
  ALT: 38.8 IU/L and 34.4 IU/L
  AST: 66.8 IU/L and 71.4 IU/L
  BUN: 10.8 mg/dL and 10 mg/dL
  CRE: 0.1 mg/dL and 0.2 mg/dL
  Ca: 10.6 mg/dL and 11 mg/dL
  Cl: 106 meq/L and 106.2 meq/L
  GLC: 185.2 mg/dL and 174.8 mg/dL
  IP: 8.9 mg/dL and 9 mg/dL
  K: 4.2 meq/L and 4.3 meq/L
  LDH: 166.8 IU/L and 60.6 IU/L
  Na: 143.4 meq/L and 142.4 meq/L
  PL: 134.2 mg/dL and 136.8 mg/dL
  RALB: 2.8 g/dL and 2.5 g/dL
  TBIL: 0.032 mg/dL and 0.068 mg/dL
  TC: 75.8 mg/dL and 74.2 mg/dL
  TP: 5.4 g/dL and 5.3 g/dL
  gamma-GTP: 1 IU/L
9 h
  TERMINAL_BW: 186.5 g and 187.9 g
  APTT: 20.3 s and 17.4 s
  Bas: 0%
  Eos: 0.6% and 1%
  Fbg: 300.4 mg/dL and 291.4 mg/dL
  Hb: 13 g/dL and 12.7 g/dL
  Ht: 38.9% and 38.1%
  Lym: 80.8% and 75.6%
  MCH: 21.1 pg and 20.6 pg
  MCHC: 33.5% and 33.3%
  MCV: 62.9 fL and 61.8 fL
  Mono: 1.8%
  Neu: 16.4% and 20.8%
  PT: 16.6 s and 13.9 s
  Plat: 120.1 x10_4/uL and 120.7 x10_4/uL
  RBC: 619.4 x10_4/ul and 616.6 x10_4/ul
  Ret: 7.8% and 8.3%
  WBC: 78.2 x10_2/uL and 80.1 x10_2/uL
  KIDNEY_L: 0.9 g and 0.8 g
  KIDNEY_R: 0.9 g and 0.8 g
  KIDNEY_TOTAL: 1.8 g and 1.6 g
  LIVER: 7.7 g and 7.1 g
  ALP: 1482.2 IU/L and 1393 IU/L
  ALT: 37.6 IU/L and 35 IU/L
  AST: 69 IU/L and 73.8 IU/L
  BUN: 10.4 mg/dL and 7.4 mg/dL
  CRE: 0.1 mg/dL and 0.2 mg/dL
  Ca: 10.4 mg/dL and 10.7 mg/dL
  Cl: 106 meq/L and 106.4 meq/L
  GLC: 178.6 mg/dL and 161 mg/dL
  IP: 9.7 mg/dL and 9.3 mg/dL
  K: 3.8 meq/L and 4.2 meq/L
  Na: 143 meq/L and 141.8 meq/L
  PL: 126.6 mg/dL and 131.6 mg/dL
  RALB: 3 g/dL and 2.5 g/dL
  TBIL: 0.034 mg/dL and 0.072 mg/dL
  TC: 72.6 mg/dL and 78 mg/dL
  TP: 5.4 g/dL and 5.3 g/dL
  gamma-GTP: 1 IU/L and 1.6 IU/L
24 h
  TERMINAL_BW: 205 g and 201 g
  APTT: 21 s and 17.8 s
  Bas: 0%
  Eos: 0.6% and 1.2%
  Fbg: 300.2 mg/dL and 289 mg/dL
  Hb: 13.1 g/dL and 13.5 g/dL
  Ht: 39.3% and 40.6%
  Lym: 81.8% and 74.6%
  MCH: 21.4 pg and 20.6 pg
  MCHC: 33.3% and 33.4%
  MCV: 64.2 fL and 61.7 fL
  Mono: 2.2% and 3%
  Neu: 15.2% and 21%
  PT: 16.5 s and 14 s
  Plat: 120.5 x10_4/uL and 107.8 x10_4/uL
  RBC: 612.4 x10_4/ul and 658.4 x10_4/ul
  Ret: 7.8% and 7.5%
  WBC: 90.3 x10_2/uL and 86.9 x10_2/uL
  KIDNEY_L: 0.9 g
  KIDNEY_R: 0.9 g and 0.8 g
  KIDNEY_TOTAL: 1.9 g and 1.7 g

— ChEMBL document CHEMBL3885861, “Open TG-GATES”
